Target: T1, Lysine-specific demethylase 4C (Homo sapiens, UniProt Q9H3R0)
T1 sequence (Q9H3R0 whole entry): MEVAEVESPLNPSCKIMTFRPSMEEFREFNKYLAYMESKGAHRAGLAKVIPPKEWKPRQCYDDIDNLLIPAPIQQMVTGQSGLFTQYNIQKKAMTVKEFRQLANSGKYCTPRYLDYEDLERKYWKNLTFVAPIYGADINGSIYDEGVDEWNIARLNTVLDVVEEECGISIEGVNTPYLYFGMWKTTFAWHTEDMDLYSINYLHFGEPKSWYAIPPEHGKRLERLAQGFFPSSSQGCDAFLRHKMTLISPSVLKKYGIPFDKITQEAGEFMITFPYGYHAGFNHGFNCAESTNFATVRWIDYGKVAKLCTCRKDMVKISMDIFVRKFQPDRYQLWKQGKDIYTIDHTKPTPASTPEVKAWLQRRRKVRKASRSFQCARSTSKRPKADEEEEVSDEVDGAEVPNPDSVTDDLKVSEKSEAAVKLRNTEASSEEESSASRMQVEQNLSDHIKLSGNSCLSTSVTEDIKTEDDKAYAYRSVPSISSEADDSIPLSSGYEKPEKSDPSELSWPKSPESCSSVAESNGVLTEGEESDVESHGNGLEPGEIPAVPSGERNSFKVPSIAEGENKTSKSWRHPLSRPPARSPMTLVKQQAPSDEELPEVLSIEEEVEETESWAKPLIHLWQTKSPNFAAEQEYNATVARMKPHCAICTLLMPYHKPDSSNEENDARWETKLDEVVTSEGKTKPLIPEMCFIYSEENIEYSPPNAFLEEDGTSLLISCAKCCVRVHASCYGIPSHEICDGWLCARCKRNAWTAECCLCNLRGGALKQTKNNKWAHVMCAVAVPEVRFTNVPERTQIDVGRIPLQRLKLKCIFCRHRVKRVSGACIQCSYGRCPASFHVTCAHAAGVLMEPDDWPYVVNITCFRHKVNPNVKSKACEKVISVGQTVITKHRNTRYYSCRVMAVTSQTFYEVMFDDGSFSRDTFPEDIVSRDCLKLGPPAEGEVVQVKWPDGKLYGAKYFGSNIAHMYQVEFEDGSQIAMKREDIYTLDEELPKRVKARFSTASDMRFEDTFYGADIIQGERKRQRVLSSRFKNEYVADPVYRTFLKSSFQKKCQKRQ
Assay: Inhibition of N-terminal his-tagged full-length human KDM4C transfected in U2OS cells assessed as inhibition of H3K9Me3 demethylation for 24 hrs

IC50 [µM]	SMILES
3.98	CC(C)c1ccc(Oc2nc3cnccc3c(=O)[nH]2)cn1
3.98	O=c1[nH]c(Oc2ccc(Cl)c(O)c2)nc2cnccc12
